{"source": "paper PMC11828983", "about": "(Scientific Reports, 2025)", "key": {"α3 GlyR (homomeric)": {"biological_target": "T1, α3 GlyR (homomeric) (Rattus norvegicus, UniProt P24524)", "T1 sequence (P24524 34-464)": "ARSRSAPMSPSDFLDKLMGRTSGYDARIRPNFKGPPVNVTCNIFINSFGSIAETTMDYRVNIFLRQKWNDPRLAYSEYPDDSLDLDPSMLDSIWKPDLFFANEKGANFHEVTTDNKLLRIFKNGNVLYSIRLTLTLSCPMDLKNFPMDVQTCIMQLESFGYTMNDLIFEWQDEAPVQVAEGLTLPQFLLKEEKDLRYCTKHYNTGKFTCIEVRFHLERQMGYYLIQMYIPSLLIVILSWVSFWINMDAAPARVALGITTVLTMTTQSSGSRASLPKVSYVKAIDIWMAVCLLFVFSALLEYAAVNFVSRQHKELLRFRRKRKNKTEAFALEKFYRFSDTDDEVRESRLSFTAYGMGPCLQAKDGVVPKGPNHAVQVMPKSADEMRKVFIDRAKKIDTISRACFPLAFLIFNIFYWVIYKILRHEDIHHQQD", "experiment": "whole-cell patch clamp, direct activation", "type": "cell-based", "details": "no glycine added; agonist; residual glycine not excluded"}, "α1 GlyR (homomeric)": {"biological_target": "T2, α1 GlyR (homomeric) (Rattus norvegicus, UniProt Q546L7)", "T2 sequence (Q546L7 29-449)": "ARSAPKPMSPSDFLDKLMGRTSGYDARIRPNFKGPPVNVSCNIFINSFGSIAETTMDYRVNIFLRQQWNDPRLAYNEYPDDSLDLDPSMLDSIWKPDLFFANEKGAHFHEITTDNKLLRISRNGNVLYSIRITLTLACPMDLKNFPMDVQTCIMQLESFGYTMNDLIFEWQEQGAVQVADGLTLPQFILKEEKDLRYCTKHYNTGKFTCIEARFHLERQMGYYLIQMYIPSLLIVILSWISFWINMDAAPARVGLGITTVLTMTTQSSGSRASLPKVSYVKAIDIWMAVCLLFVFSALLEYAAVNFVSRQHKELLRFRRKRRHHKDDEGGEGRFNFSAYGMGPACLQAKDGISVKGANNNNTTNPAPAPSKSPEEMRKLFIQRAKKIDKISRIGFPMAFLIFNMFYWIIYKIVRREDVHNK", "experiment": "whole-cell patch clamp, direct activation", "type": "cell-based", "details": "no glycine added; agonist; residual glycine not excluded"}}, "data": [{"substance": "AM-1488", "values": [{"measurement": "% of maximal glycine current at 100 μM", "setting": "α3 GlyR (homomeric)", "value": "~ 15%"}, {"measurement": "% of maximal glycine current at 100 μM", "setting": "α1 GlyR (homomeric)", "value": "> 20", "unit": "%"}]}]}
